Target: human NAMPT enzyme (His-hNAMPT) (Homo sapiens (Human), UniProt P43490)
Experiment: NAMPT enzymatic inhibition assay (fluorescence, NADH product)
Format: biochemical
Conditions: [HDB]; read-out: NAMPT IC50 (μM) [HDB]

human NAMPT enzyme (His-hNAMPT), sequence (P43490 whole entry): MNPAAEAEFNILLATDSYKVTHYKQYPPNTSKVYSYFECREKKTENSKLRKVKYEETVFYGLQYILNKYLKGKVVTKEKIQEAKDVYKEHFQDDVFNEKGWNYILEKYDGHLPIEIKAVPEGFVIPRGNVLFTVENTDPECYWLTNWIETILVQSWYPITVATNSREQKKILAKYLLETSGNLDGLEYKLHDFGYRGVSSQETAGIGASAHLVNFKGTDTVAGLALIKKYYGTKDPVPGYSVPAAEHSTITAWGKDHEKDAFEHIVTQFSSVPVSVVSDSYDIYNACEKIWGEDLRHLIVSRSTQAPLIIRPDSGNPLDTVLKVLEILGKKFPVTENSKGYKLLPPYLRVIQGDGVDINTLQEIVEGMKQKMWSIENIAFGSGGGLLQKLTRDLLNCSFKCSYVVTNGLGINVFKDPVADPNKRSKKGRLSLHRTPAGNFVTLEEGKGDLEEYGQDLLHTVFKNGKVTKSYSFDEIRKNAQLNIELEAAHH

Compound	IC50
N#Cc1ccc(N2C[C@@H]3[C@@H](CCNC(=O)/C=C/c4cccnc4)[C@@H]3C2)cc1 [Example 137, (E)-N-(2-((1R,5S,6s)-3-(4-cyanophenyl)-3-azabicyclo[3.1.0]hexan-6-yl)ethyl)-3-(pyridin-3-yl)acrylamide]	0.01 to 0.49 µM
O=C(/C=C/c1cccnc1)NCC[C@@H]1[C@H]2CN(c3cccc(C(F)(F)F)c3)C[C@@H]12 [Example 138, (E)-3-(pyridin-3-yl)-N-(2-((1R,5S,6s)-3-(3-(trifluoromethyl)phenyl)-3-azabicyclo[3.1.0]hexan-6-yl)ethyl)acrylamide]	0.01 to 0.49 µM
O=C(/C=C/c1cccnc1)NCC[C@@H]1[C@H]2CN(c3ccc(C(F)(F)F)cc3)C[C@@H]12 [Example 139, (E)-3-(pyridin-3-yl)-N-(2-((1R,5S,6s)-3-(4-(trifluoromethyl)phenyl)-3-azabicyclo[3.1.0]hexan-6-yl)ethyl)acrylamide]	0.01 to 0.49 µM
O=C(/C=C/c1cccnc1)NCC[C@@H]1[C@H]2CN(c3ccccc3C(F)(F)F)C[C@@H]12 [Example 140, (E)-3-(pyridin-3-yl)-N-(2-((1R,5S,6S)-3-(2-(trifluoromethyl)phenyl)-3-azabicyclo[3.1.0]hexan-6-yl)ethyl)acrylamide]	0.01 to 0.49 µM
O=C(/C=C/c1cccnc1)NCC[C@@H]1[C@H]2CN(c3ccc4ccncc4c3)C[C@@H]12 [Example 141, (E)-N-(2-((1R,5S,6s)-3-(isoquinolin-7-yl)-3-azabicyclo[3.1.0]hexan-6-yl)ethyl)-3-(pyridin-3-yl)acrylamide]	< 0.01 µM
O=C(/C=C/c1cccnc1)NCC[C@@H]1[C@H]2CN(c3ccc4cnccc4c3)C[C@@H]12 [Example 142, (E)-N-(2-((1R,5S,6s)-3-(isoquinolin-6-yl)-3-azabicyclo[3.1.0]hexan-6-yl)ethyl)-3-(pyridin-3-yl)acrylamide]	< 0.01 µM
O=C(/C=C/c1cccnc1)NCC[C@@H]1[C@H]2CN(c3ccnc4ccccc34)C[C@@H]12 [Example 143, (E)-3-(pyridin-3-yl)-N-(2-((1R,5S,6s)-3-(quinolin-4-yl)-3-azabicyclo[3.1.0]hexan-6-yl)ethyl)acrylamide]	0.01 to 0.49 µM
O=C(/C=C/c1cccnc1)NCC[C@@H]1[C@H]2CN(c3ccccc3Cl)C[C@@H]12 [Example 144, (E)-N-(2-((1R,5S,6s)-3-(2-chlorphenyl)-3-azabicyclo[3.1.0]hexan-6-yl)ethyl)-3-(pyridin-3-yl)acrylamide]	0.01 to 0.49 µM
O=C(/C=C/c1cccnc1)NCC[C@@H]1[C@H]2CN(c3cccc(Cl)c3)C[C@@H]12 [Example 145, (E)-N-(2-((1R,5S,6s)-3-(3-chlorophenyl)-3-azabicyclo[3.1.0]hexan-6-yl)ethyl)-3-(pyridin-3-yl)acrylamide]	0.01 to 0.49 µM
O=C(/C=C/c1cccnc1)NCC[C@@H]1[C@H]2CN(c3ccc(Cl)cc3)C[C@@H]12 [Example 146, (E)-N-(2-((1R,5S,6s)-3-(4-chlorophenyl)-3-azabicyclo[3.1.0]hexan-6-yl)ethyl)-3-(pyridin-3-yl)acrylamide]	0.01 to 0.49 µM
O=C(/C=C/c1cccnc1)NCC[C@@H]1[C@H]2CN(c3ccc(Cl)c(Cl)c3)C[C@@H]12 [Example 147, (E)-N-(2-((1R,5S,6s)-3-(3,4-dichlorophenyl)-3-azabicyclo[3.1.0]hexan-6-yl)ethyl)-3-(pyridin-3-yl)acrylamide]	< 0.01 µM
O=C(/C=C/c1cccnc1)NCC[C@@H]1[C@H]2CN(c3cc(Cl)cc(Cl)c3)C[C@@H]12 [Example 148, (E)-N-(2-((1R,5S,6s)-3-(3,5-dichlorophenyl)-3-azabicyclo[3.1.0]hexan-6-yl)ethyl)-3-(pyridin-3-yl)acrylamide]	< 0.01 µM
O=C(/C=C/c1cccnc1)NCC[C@@H]1[C@H]2CN(c3cccnc3)C[C@@H]12 [Example 149, (E)-3-(pyridin-3-yl)-N-(2-((1R,5S,6s)-3-(pyridin-3-yl)-3-azabicyclo[3.1.0]hexan-6-yl)ethyl)acrylamide]	0.01 to 0.49 µM
